Reference: paper PMC12737022, “Evaluations of Sex Differences in Dosimetry in Rats Following Perfluorohexanesulfonamide (PFHxSA) Oral Exposure” (Toxics, 2025)
Several values for one entry are separate records, joined by “and”; a condition that tells them apart may be missing. Identical values can stand only once. Like-named read-outs stand apart in the source and are kept apart here.

Key:
[1] = design: method as in Smeltz et al. [60]; conditions: ref Smeltz et al. [60], cited from earlier work; for fup (fraction unbound in plasma): Human plasma; for fub (fraction unbound in blood): Human
[2] = Ultracentrifugation plasma protein binding assay, rat plasma; type: in vitro ADME; conditions: for fraction unbound at 1 h, 10 µM: both sexes, SD
Description: Human and rat plasma were evaluated for plasma protein binding of PFHxSA and PFHxS using ultracentrifugation. Data generated in human plasma were obtained from an earlier study; for this study, data were generated in rat plasma following the same protocol as described by Smeltz et al.. SD rat plasma (pooled, mixed sex) was obtained from a commercial vendor (BioIVT, Westbury, NY, USA). Briefly, PFHxSA and PFHxS were added to the plasma to achieve a final assay concentration of 10 µM. Following a 1 h 37 °C incubation, 1 mL aliquots from each plasma solution were drawn in triplicate and transferred to polycarbonate ultracentrifuge tubes. These samples underwent ultracentrifugation (Beckman OptimaMax; Beckman Coulter Inc., Indianapolis, IN, USA) at 850,000× g for 4 h at 37 °C; after completion, the aqueous fraction (AF) was collected by transferring the supernatant to a new tube. Two sets of samples of the original PFAS-spiked whole plasma were also collected after a 1 h or a 5 h incubation at 37 °C. All samples were combined with 3 volumes of ice-cold ACN containing relevant internal standard, vigorously mixed, then centrifuged at 12,000× g for 10 min at 4 °C. Supernatants were collected and then stored at <−70 °C until analysis.
Targeted, quantitative analysis of in vitro hepatocyte metabolic stability and plasma protein binding assay samples was conducted on a Waters (Milford, MA, USA) Xevo-TQS micro ultra-high-performance liquid chromatography tandem mass spectrometry system (UPLC-MS/MS), modified with a PFAS analysis kit. Samples were analyzed in negative ion mode with UniSpray ionization. Samples were analyzed in triplicate, with a reference compound included to evaluate assay performance. A CORTECS T3 column (Waters; 3 mm × 100 mm, 2.7 µm) was used for chromatographic separation with a flow rate of 0.6 mL/min and a temperature of 55 °C. Gradient elution was used with mobile phase A (95:5 H2O/ACN) and mobile phase B (95:5 ACN/H2O), each with 2.5 mM of ammonium acetate added. More details are provided in Smeltz et al..
(§1) Intrinsic hepatic clearance (Clint) and fraction unbound in plasma (fup) were calculated from the experimental point estimate data as described in Dobreniecki et al.. Steady-state concentrations (Css) were derived based on zero-order uptake of an assumed daily dose from the gut (assuming 100% intestinal bioavailability) but considering hepatic clearance and non-metabolic renal clearance. Renal clearance was calculated using the glomerular filtration rate (a species-dependent constant) and the fraction unbound in blood (fub), estimated by adjusting the experimental fup for blood/plasma partitioning. The Css calculations, along with underlying species-specific physiologic scalars, are detailed in SI Texts S6 and S7.

[3] = In vitro-in vivo extrapolation (IVIVE) to estimate Css, human; conditions: for Css (steady-state concentration) / CL renal: Human; for Css (steady-state concentration): IVIVE-derived, assumes 1 mg/kg/day exposure; for CL renal: non-metabolic, GFR x fub, read-out: Clrenal (renal clearance) (converted); for Predicted Css in humans higher than rats: cross-species IVIVE comparison
Description: as §1, with “S7. […]” for “S7.”
(§2) hepatocytes). In equation (C), the scalar 2000 is used to adjust the assay cell number to be consistent with units of 1 million cells in the Clint equation.
(§3) Text S7 In Vitro-In Vivo Extrapolation (IVIVE) Calculations
(§4) The pharmacokinetic equation used to estimate expected steady-state concentrations (Css) is based on zero-order uptake of a daily dose from the gut (assuming 100% bioavailability) with both nonmetabolic renal clearance (Clrenal) and hepatic clearance (Clhepatic) (Equation D). The chemical input rate (ko) is the product of the intake dosage and the model body weight; this represents the numerator of Equation D. The Clrenal calculation is shown in the first part of the denominator of Equation D; it is the product of the species-dependent glomerular filtration rate (GFR) and the unbound fraction in blood (fub) of the parent compound. The Clhepatic calculation is shown in the second part of the denominator of Equation D; it is the product of the species-dependent liver blood flow constant, the fub of the parent compound, and the experimentally derived intrinsic clearance (shown in Equation C) divided by the sum of these three values. All values used in Equation D are for first-order conditions of metabolism in the […]

[4] = In vitro-in vivo extrapolation (IVIVE) to estimate Css, rat; conditions: for Css (steady-state concentration) / CL renal: Rat; for Css (steady-state concentration): IVIVE-derived, assumes 1 mg/kg/day exposure; for CL renal: non-metabolic, GFR x fub, read-out: Clrenal (renal clearance) (converted)
Description: as §1, with “S7. […]” for “S7.”
as §2, §3, §4

[5] = blood (estimated from fup in plasma), Rat, fup adjusted for blood/plasma partitioning, read-out: fub (fraction unbound in blood)
[6] = Rat plasma, 10 µM, ultracentrifugation, read-out: fup (fraction unbound in plasma)

Structure (SMILES): O=S(=O)(O)C(F)(F)C(F)(F)C(F)(F)C(F)(F)C(F)(F)C(F)(F)F [PFHxS, perfluorohexane sulfonic acid]
- fup (fraction unbound in plasma) [1]: 0.0009 ^1
- fub (fraction unbound in blood) [1]: 0.0016 ^1
- fraction unbound at 1 h, 10 µM [2, 5]: 0.0014
- fraction unbound at 1 h, 10 µM [2, 6]: 0.0008
- Plasma binding of PFHxS higher than PFHxSA ([2]; rat plasma): 25%
- Css (steady-state concentration) [3]: 669 µM
- CL renal [3]: 0.183 mL/min
- Predicted Css in humans higher than rats [3]: 3- to 10 fold
- IVIVE-derived Css lower for PFHxS compared to PFHxSA ([3]; human): 2.25 fold
- Css (steady-state concentration) [4]: 243 µM
- CL renal [4]: 0.00167 mL/min
- PFHxS Css higher than PFHxSA Css ([4]; rat): 1.8 fold

Structure (SMILES): NS(=O)(=O)C(F)(F)C(F)(F)C(F)(F)C(F)(F)C(F)(F)C(F)(F)F [PFHxSA, Perfluorohexanesulfonamide]
- fup (fraction unbound in plasma) [1]: 0.0004 ^1
- fub (fraction unbound in blood) [1]: 0.0007 ^1
- fraction unbound at 1 h, 10 µM [2, 5]: 0.0018
- fraction unbound at 1 h, 10 µM [2, 6]: 0.001
- Css (steady-state concentration) [3]: 1510 µM
- CL renal [3]: 0.0817 mL/min
- Predicted Css in humans higher than rats [3]: 3- to 10 fold
- Css (steady-state concentration) [4]: 138 µM
- CL renal [4]: 0.00167 mL/min
- IVIVE-derived Css higher than in vivo plasma concentration ([4]; rat, 1 mg/kg/day, female and male rat plasma, respectively): 6.5–12.1 fold and 6.5–12 fold
